Data taken from patent US20220306695A1, “COMPSTATIN ANALOGUES AND THEIR MEDICAL USES” (priority 2019, published 2022).
Where two headings read alike, the source gives them in different places. Positions of bridges follow the written chain, without caps; N, C: chain ends. Non-standard residues stand in square brackets, D forms with d. Residues, ends and D or L forms follow the SMILES beside them. Trp(1-Me) = Cn1cc(C[C@H](N)C(=O)O)c2ccccc21; Sar = CNCC(=O)O

Assays:
[1] = tested on: classical complement pathway; assay: In vitro haemolysis assay (inhibition of classical complement pathway); type: cell-based, human
How it was run: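 Serially diluted compound (9 points) was preincubated 15 min at room temperature with diluted human serum, titrated per batch to give 70-90% maximal haemolysis, in Tris/casein buffer pH 7.4 with Mg2+/Ca2+. Antibody-sensitized sheep erythrocytes were then added for 30 min at 37° C, and the reaction was stopped with EDTA. Haemolysis was read at A405, with IC50 from 4PL fit.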

[2] = Solubility test at 10 mg/mL (visual inspection and light scattering); type: physicochemical; settings: for Solubility, Condition 1 Acetate pH 4: 10 mg/mL compound in 100 mM acetate pH 4; for Solubility, Condition 2 Acetate pH 5: 10 mg/mL compound in 100 mM acetate pH 5; for Solubility, Condition 3 Phosphate pH 6: 10 mg/mL compound in 100 mM phosphate pH 6; for Solubility, Condition 4 Phosphate pH 7: 10 mg/mL compound in 100 mM phosphate pH 7; for Solubility, Condition 5 Phosphate pH 7.5: 10 mg/mL compound in 100 mM phosphate pH 7.5
[3] = Table 3, human serum, sensitized sheep red blood cells, read-out: IC50[nM], in vitro analysis of inhibition of hemolysis

SMILES | IC50 [1, 3] [nM] | Solubility, Condition 1 Acetate pH 4 [2] | Solubility, Condition 2 Acetate pH 5 [2] | Solubility, Condition 3 Phosphate pH 6 [2] | Solubility, Condition 4 Phosphate pH 7 [2] | Solubility, Condition 5 Phosphate pH 7.5 [2] | IC50 ([1]; Table 4, valine 3 versus isoleucine 3 pairs, read-out: CP hemolysis IC50) [nM] | IC50 ([1]; Table 2, human serum, sensitized sheep red blood cells, read-out: CP hemolysis IC50) [nM]
CC[C@H](C)[C@H](NC(C)=O)C(=O)N[C@H]1CSSC[C@@H](C(=O)N[C@@H](CCC(=O)O)C(=O)NCC(=O)N[C@@H](CCC(=O)O)C(N)=O)NC(=O)[C@H](CCCNC(=N)N)NC(=O)[C@H](Cc2c[nH]cn2)NC(=O)[C@H](CCC(=O)O)NC(=O)CNC(=O)[C@H](Cc2c[nH]c3ccccc23)NC(=O)[C@H](CC(=O)O)NC(=O)[C@H](CCC(N)=O)NC(=O)[C@H](Cc2c[nH]c3ccccc23)NC(=O)[C@H]([C@@H](C)CC)NC1=O [Compound 27] (Ac-ICIWQDWGEHRCEGE-NH2; disulfide 2-12) | < 100 | − (denotes lack of solubility at the given condition, as UV absorbance at 340 nm exceeds 0.1 AU and/or it is visibly turbid or contains particles.) | − (denotes lack of solubility at the given condition, as UV absorbance at 340 nm exceeds 0.1 AU and/or it is visibly turbid or contains particles.) | − (denotes lack of solubility at the given condition, as UV absorbance at 340 nm exceeds 0.1 AU and/or it is visibly turbid or contains particles.) | + (denotes solubility at the given condition, as determined by UV absorbance being less than 0.1 AU at 340 nm and the sample being clear when manually inspected.) | + (denotes solubility at the given condition, as determined by UV absorbance being less than 0.1 AU at 340 nm and the sample being clear when manually inspected.) |  | 
CC[C@H](C)[C@H](NC(=O)[C@H](C)NC(=O)[C@H](CO)NC(=O)[C@H](CO)NC(=O)[C@H](CCC(=O)O)NC(C)=O)C(=O)N[C@H]1CSSC[C@@H](C(=O)N[C@H](C(N)=O)[C@@H](C)O)NC(=O)[C@H](CCCNC(=N)N)NC(=O)[C@H](Cc2c[nH]cn2)NC(=O)[C@H](CCC(=O)O)NC(=O)CNC(=O)[C@H](Cc2c[nH]c3ccccc23)NC(=O)[C@H](CC(=O)O)NC(=O)[C@H](CCC(N)=O)NC(=O)[C@H](Cc2c[nH]c3ccccc23)NC(=O)[C@H]([C@@H](C)CC)NC1=O [Compound 3] (Ac-ESSAICIWQDWGEHRCT-NH2; disulfide 6-16) | < 100 | + (denotes solubility at the given condition, as determined by UV absorbance being less than 0.1 AU at 340 nm and the sample being clear when manually inspected.) | − (denotes lack of solubility at the given condition, as UV absorbance at 340 nm exceeds 0.1 AU and/or it is visibly turbid or contains particles.) | − (denotes lack of solubility at the given condition, as UV absorbance at 340 nm exceeds 0.1 AU and/or it is visibly turbid or contains particles.) | + (denotes solubility at the given condition, as determined by UV absorbance being less than 0.1 AU at 340 nm and the sample being clear when manually inspected.) | + (denotes solubility at the given condition, as determined by UV absorbance being less than 0.1 AU at 340 nm and the sample being clear when manually inspected.) | 69 | 
CC[C@H](C)[C@H](NC(=O)[C@H](C)NC(=O)[C@H](CO)NC(=O)CNC(=O)[C@H](CCC(=O)O)NC(C)=O)C(=O)N[C@H]1CSSC[C@@H](C(=O)N(C)CC(=O)N[C@@H](CCC(=O)O)C(=O)NCC(=O)N[C@@H](CCC(=O)O)C(N)=O)NC(=O)[C@H](CCCNC(=N)N)NC(=O)[C@H](Cc2c[nH]cn2)NC(=O)[C@H](CCC(=O)O)NC(=O)CNC(=O)[C@H](Cc2c[nH]c3ccccc23)NC(=O)[C@H](CC(=O)O)NC(=O)[C@H](CCC(N)=O)NC(=O)[C@H](Cc2c[nH]c3ccccc23)NC(=O)[C@H]([C@@H](C)CC)NC1=O [Compound 44] (Ac-EGSAICIWQDWGEHRC[Sar]EGE-NH2; disulfide 6-16) | < 250 | − (denotes lack of solubility at the given condition, as UV absorbance at 340 nm exceeds 0.1 AU and/or it is visibly turbid or contains particles.) | − (denotes lack of solubility at the given condition, as UV absorbance at 340 nm exceeds 0.1 AU and/or it is visibly turbid or contains particles.) | + (denotes solubility at the given condition, as determined by UV absorbance being less than 0.1 AU at 340 nm and the sample being clear when manually inspected.) | + (denotes solubility at the given condition, as determined by UV absorbance being less than 0.1 AU at 340 nm and the sample being clear when manually inspected.) | + (denotes solubility at the given condition, as determined by UV absorbance being less than 0.1 AU at 340 nm and the sample being clear when manually inspected.) |  | 
CC[C@H](C)[C@@H]1NC(=O)[C@@H](NC(=O)[C@H](Cc2ccccc2)NC(=O)[C@H](CCC(=O)O)NC(C)=O)CSSC[C@@H](C(=O)N(C)CC(=O)N[C@@H](CCC(=O)O)C(=O)N[C@@H](C)C(N)=O)NC(=O)[C@H](CCCNC(=N)N)NC(=O)[C@H](Cc2c[nH]cn2)NC(=O)[C@H](CCC(=O)O)NC(=O)CNC(=O)[C@H](Cc2c[nH]c3ccccc23)NC(=O)[C@H](CC(=O)O)NC(=O)[C@H](CCC(N)=O)NC(=O)[C@H](Cc2cn(C)c3ccccc23)NC1=O [Compound 80] (Ac-EFCI[Trp(1-Me)]QDWGEHRC[Sar]EA-NH2; disulfide 3-13) | < 100 | − (denotes lack of solubility at the given condition, as UV absorbance at 340 nm exceeds 0.1 AU and/or it is visibly turbid or contains particles.) | − (denotes lack of solubility at the given condition, as UV absorbance at 340 nm exceeds 0.1 AU and/or it is visibly turbid or contains particles.) | + (denotes solubility at the given condition, as determined by UV absorbance being less than 0.1 AU at 340 nm and the sample being clear when manually inspected.) | + (denotes solubility at the given condition, as determined by UV absorbance being less than 0.1 AU at 340 nm and the sample being clear when manually inspected.) | + (denotes solubility at the given condition, as determined by UV absorbance being less than 0.1 AU at 340 nm and the sample being clear when manually inspected.) |  | 
CC[C@H](C)[C@@H]1NC(=O)[C@@H](NC(=O)[C@H](Cc2ccccc2)NC(=O)[C@H](C)NC(=O)[C@H](CO)NC(=O)CNC(=O)[C@H](CCC(=O)O)NC(C)=O)CSSC[C@@H](C(=O)N[C@H](C(=O)N[C@@H](CCC(=O)O)C(N)=O)[C@@H](C)O)NC(=O)[C@H](CCCNC(=N)N)NC(=O)[C@H](Cc2c[nH]cn2)NC(=O)[C@H](CCC(=O)O)NC(=O)CNC(=O)[C@H](Cc2c[nH]c3ccccc23)NC(=O)[C@H](CC(=O)O)NC(=O)[C@H](CCC(N)=O)NC(=O)[C@H](Cc2cn(C)c3ccccc23)NC1=O [Compound 57] (Ac-EGSAFCI[Trp(1-Me)]QDWGEHRCTE-NH2; disulfide 6-16) | < 100 | − (denotes lack of solubility at the given condition, as UV absorbance at 340 nm exceeds 0.1 AU and/or it is visibly turbid or contains particles.) | − (denotes lack of solubility at the given condition, as UV absorbance at 340 nm exceeds 0.1 AU and/or it is visibly turbid or contains particles.) | + (denotes solubility at the given condition, as determined by UV absorbance being less than 0.1 AU at 340 nm and the sample being clear when manually inspected.) | + (denotes solubility at the given condition, as determined by UV absorbance being less than 0.1 AU at 340 nm and the sample being clear when manually inspected.) | + (denotes solubility at the given condition, as determined by UV absorbance being less than 0.1 AU at 340 nm and the sample being clear when manually inspected.) |  | 
CC[C@H](C)[C@H](NC(C)=O)C(=O)N[C@H]1CSSC[C@@H](C(=O)N[C@H](C(N)=O)[C@@H](C)O)NC(=O)[C@H](CCCNC(=N)N)NC(=O)[C@H](Cc2c[nH]cn2)NC(=O)[C@H](C)NC(=O)CNC(=O)[C@H](Cc2c[nH]c3ccccc23)NC(=O)[C@H](CC(=O)O)NC(=O)[C@H](CCC(N)=O)NC(=O)[C@H](Cc2c[nH]c3ccccc23)NC(=O)[C@H]([C@@H](C)CC)NC1=O [Compound 1] (Ac-ICIWQDWGAHRCT-NH2; disulfide 2-12) | < 250 | + (denotes solubility at the given condition, as determined by UV absorbance being less than 0.1 AU at 340 nm and the sample being clear when manually inspected.) | − (denotes lack of solubility at the given condition, as UV absorbance at 340 nm exceeds 0.1 AU and/or it is visibly turbid or contains particles.) | − (denotes lack of solubility at the given condition, as UV absorbance at 340 nm exceeds 0.1 AU and/or it is visibly turbid or contains particles.) | − (denotes lack of solubility at the given condition, as UV absorbance at 340 nm exceeds 0.1 AU and/or it is visibly turbid or contains particles.) | − (denotes lack of solubility at the given condition, as UV absorbance at 340 nm exceeds 0.1 AU and/or it is visibly turbid or contains particles.) |  | 150
